{"source": "patent US5434136A", "about": "“Treatment of motility disorders with a GNRH analog” (priority 1992, dated 1995)", "system": "motility of stomach and small intestine", "assay": "Motility recordings (duodenal jejunal manometry) and hydrogen breath test in SLE patients", "assay_type": "in vivo, human", "method": "Motility recordings of the stomach and small intestine were performed with a ultraminiature force-transducer probe (Millar Instruments, Houston, Tex.). Pressure readings from the probe were recorded on an R612 physiologic recorder fitted with Model 9872 couplers (SenorMedics, Yorba Linda, Calif.). After the probe was passed transnasally and placed fluoroscopically, a 12 hour recording of the patient was made with the patient in the fasted state. They then drank a 240-ml liquid meal (ENSURE), and the recording was continued for three hours to evaluate conversion from the fasting pattern to fed-state motor activity. During the fasting state, this patient had three poorly formed and disorganized migrating motor complexes, whereas the normal range expected is 6-8, or a mean of 7.4 in the 12 hour recording period. […] The patient was diagnosed as having chronic intestinal pseudo-obstruction associated with sero-negative SLE.", "data": [{"smiles": "CCNC(=O)[C@@H]1CCCN1C(=O)[C@H](CCCNC(=N)N)NC(=O)[C@H](CC(C)C)NC(=O)[C@@H](CC(C)C)NC(=O)[C@H](Cc1ccc(O)cc1)NC(=O)[C@H](CO)NC(=O)[C@H](Cc1c[nH]c2ccccc12)NC(=O)[C@H](Cc1c[nH]cn1)NC(=O)[C@@H]1CCC(=O)N1", "note": "[Leuprolide acetate, leuprolide acetate]", "values": [{"measurement": "Motility pattern upon the liquid meal", "setting": "SLE patient 4, after six months of therapy, failed to convert before", "value": "converted to the fed state"}, {"measurement": "Cycling migrating motor complexes in the motility recording", "setting": "SLE patient 4, after six months of therapy, virtually no motility before, normal range 6-8 per 12 hour", "value": "six"}, {"measurement": "Migrating motor complexes per 12 hour recording session", "setting": "SLE patient 5, 1.75 mg daily s.c., after six months, absence of motility before", "value": "Ten"}, {"measurement": "Motility pattern after intake of the liquid meal", "setting": "SLE patient 5, after six months of therapy, failed to convert before", "value": "converted to the fed state pattern"}, {"measurement": "Hydrogen breath test (oral to cecal transit time)", "setting": "SLE patient 5, after six months of therapy, markedly prolonged before", "value": "unchanged"}]}]}
